Here are results for 2 molecules from patent US20140287447A1, “Ultrasensitive methodology for quantifying the kinase catalytic activity of any protein kinase in biological/clinical samples or recombinant/purified proteins using near-infrared-fluorescence (NIRF)-labeled, kinase-selective peptide substrates and a combination of kinase-selective inhibitors to …” (priority 2013, published 2014).

For data set [1], the system named is MDA-MB-231 breast cancer cell lysates. Briefly: NIRF-based kinase reaction in breast cancer cell lysates with and without PKC-inhibitor cocktail. The class given is biochemical. Conditions: cGMP 10 μM, MDA-MB-231 cell lysates. As for the experimental part:
This allows simultaneous determination of PKG-I kinase activity in MDA-MB-231 breast cancer cell lysates (D).
Each reagent has been previously experimentally tested to be the optimum concentration used for a complete radioactive-free kinase reaction to measure PKG kinase activity. The reagents for homogenizing buffer include: 20 mM Potassium phosphate (pH 7.0), 10 mM EDTA, 0.5 mM isobutylmethylxanthine, and 10 mM DTT.
Table 5 is the disclosure protocol that is illustrated as a work flow in FIG. 7. Biological samples can be prepared in the homogenizing buffer (Table 4) using a variety of techniques. These techniques include, but are not limited to: sonication, dounce-homogenation, the use of a tissue grinder, and/or a detergent specialized for lysing cells. Once a biological sample is prepared in the specially formulated homogenizing buffer from Table 4 or purified/recombinant protein buffer recommended by the manufacturer (2) included in the disclosure, the sample can be added to a sterile microfuge tube containing the radioactive-free kinase reaction mixture containing NIRF-Histone-H2B(29-35) (Table 3 and FIG. 1) (4). The kinase reaction typically requires an incubation chamber capable of reaching a temperature of 30° C. to incubate the samples. The time and temperature of incubation is determined by the researcher, but short incubation times of 2 minutes can be used. […]

Substrate in data set [2]: Nc1ncnc2c1ncn2[C@@H]1O[C@H](COP(=O)(O)OP(=O)(O)OP(=O)(O)O)[C@@H](O)[C@H]1O
Briefly: purified protein, by the assay type. Conditions: 30.0 °C.

In the case of `Nc1nc2c(ncn2[C@@H]2O[C@@H]3COP(=O)(O)O[C@H]3[C@H]2O)c(=O)[nH]1` [cGMP, cyclic guanosine monophosphate], the “effect of exogenously-added cGMP on kinase activity in cell lysates” value in data set [1] is “does not cause increased kinase activity”.

B1: recombinant PKG-Iα (rPKG-Iα) (Homo sapiens) (protein)
chain: MSELEEDFAKILMLKEERIKELEKRLSEKEEEIQELKRKLHKCQSVLPVPSTHIGPRTTRAQGISAEPQTYRSFHDLRQAFRKFTKSERSKDLIKEAILDNDFMKNLELSQIQEIVDCMYPVEYGKDSCIIKEGDVGSLVYVMEDGKVEVTKEGVKLCTMGPGKVFGELAILYNCTRTATVKTLVNVKLWAIDRQCFQTIMMRTGLIKHTEYMEFLKSVPTFQSLPEEILSKLADVLEETHYENGEYIIRQGARGDTFFIISKGTVNVTREDSPSEDPVFLRTLGKGDWFGEKALQGEDVRTANVIAAEAVTCLVIDRDSFKHLIGGLDDVSNKAYEDAEAKAKYEAEAAFFANLKLSDFNIIDTLGVGGFGRVELVQLKSEESKTFAMKILKKRHIVDTRQQEHIRSEKQIMQGAHSDFIVRLYRTFKDSKYLYMLMEACLGGELWTILRDRGSFEDSTTRFYTACVVEAFAYLHSKGIIYRDLKPENLILDHRGYAKLVDFGFAKKIGFGKKTWTFCGTPEYVAPEIILNKGHDISADYWSLGILMYELLTGSPPFSGPDPMKTYNIILRGIDMIEFPKKIAKNAANLIKKLCRDNPSERLGNLKNGVKDIQKHKWFEGFNWEGLRKGTLTPPIIPSVASPTDTSNFDSFPEDNDEPPPDDNSGWDIDF
Broadly, the Km is the substrate concentration at which the rate is half of its maximum. Consider B1, for which, in data set [2], the Km came to 8.8 µM.
